Measurements: patent US11427549B2, “Pyrimidinyloxy benzo-fused compounds as herbicides” (FMC Corporation, priority 2017, dated 2022)

Key:
kochia (Kochia scoparia) [1] = test: Test A preemergence, kochia; assay type: in vivo; details: Bassia scoparia, pre-emergence, 240 h, 0 to 100 scale (0 no effect, 100 complete control), read-out: Plant response rating, Kochia; for pest or weed control at 31 g/ha: 31 g ai/ha; for pest or weed control at 125 g/ha: 125 g ai/ha
corn (Zea mays) = test: Test A postemergence, corn; assay type: in vivo; details: Zea mays, post-emergence, 240 h, 0 to 100 scale (0 no effect, 100 complete control); for Corn plant response rating (crop injury, 0 = no effect, 100 = complete kill) at 31 g/ha: 31 g ai/ha; for Corn plant response rating (crop injury, 0 = no effect, 100 = complete kill) at 125 g/ha: 125 g ai/ha
[2] = test system: ryegrass, Italian (Italian ryegrass, Lolium multiflorum); test: Test A preemergence, ryegrass, Italian; assay type: in vivo; details: Lolium multiflorum, pre-emergence, 240 h, 0 to 100 scale (0 no effect, 100 complete control), read-out: Plant response rating, Ryegrass, Italian; for pest or weed control at 31 g/ha: 31 g ai/ha; for pest or weed control at 125 g/ha: 125 g ai/ha
[3] = test system: barnyardgrass (Echinochloa crus-galli); test: Test A postemergence, barnyardgrass; assay type: in vivo; details: Echinochloa crus-galli, post-emergence, 240 h, 0 to 100 scale (0 no effect, 100 complete control), read-out: Plant response rating, Barnyardgrass; for pest or weed control at 31 g/ha: 31 g ai/ha; for pest or weed control at 125 g/ha: 125 g ai/ha
[4] = test system: pigweed (Amaranthus retroflexus); test: Test A postemergence, pigweed; assay type: in vivo; details: Amaranthus retroflexus, post-emergence, 240 h, 0 to 100 scale (0 no effect, 100 complete control), read-out: Plant response rating, Pigweed; for pest or weed control at 31 g/ha: 31 g ai/ha; for pest or weed control at 125 g/ha: 125 g ai/ha
[5] = test system: blackgrass (Alopecurus myosuroides); test: Test A postemergence, blackgrass; assay type: in vivo; details: Alopecurus myosuroides, post-emergence, 240 h, 0 to 100 scale (0 no effect, 100 complete control), read-out: Plant response rating, Blackgrass; for pest or weed control at 31 g/ha: 31 g ai/ha; for pest or weed control at 125 g/ha: 125 g ai/ha
[6] = test system: ducksalad (Heteranthera limosa); test: Test B flooded paddy test, ducksalad; details: Heteranthera limosa, read-out: Plant response rating, Ducksalad (0 to 100 scale, 0 is no effect, 100 is complete control)
rice (Oryza sativa) = test: Test B flooded paddy test, rice; details: Oryza sativa, read-out: Plant response rating, Rice (0 to 100 scale, 0 is no effect, 100 is complete control)
[7] = test system: foxtail, giant (giant foxtail, Setaria faberii); test: Test A preemergence, foxtail, giant; assay type: in vivo; details: Setaria faberi, pre-emergence, 240 h, 0 to 100 scale (0 no effect, 100 complete control), read-out: Plant response rating, Foxtail, Giant; for pest or weed control at 31 g/ha: 31 g ai/ha; for pest or weed control at 125 g/ha: 125 g ai/ha
[8] = test system: galium (catchweed bedstraw, Galium aparine); test: Test A postemergence, galium; assay type: in vivo; details: Galium, post-emergence, 240 h, 0 to 100 scale (0 no effect, 100 complete control), read-out: Plant response rating, Galium; for pest or weed control at 31 g/ha: 31 g ai/ha; for pest or weed control at 125 g/ha: 125 g ai/ha
kochia (Kochia scoparia) [9] = test: Test A postemergence, kochia; assay type: in vivo; details: Bassia scoparia, post-emergence, 240 h, 0 to 100 scale (0 no effect, 100 complete control), read-out: Plant response rating, Kochia; for pest or weed control at 31 g/ha: 31 g ai/ha; for pest or weed control at 125 g/ha: 125 g ai/ha
[10] = test system: ragweed (common ragweed, Ambrosia elatior); test: Test A postemergence, ragweed; assay type: in vivo; details: Ambrosia artemisiifolia, post-emergence, 240 h, 0 to 100 scale (0 no effect, 100 complete control), read-out: Plant response rating, Ragweed; for pest or weed control at 31 g/ha: 31 g ai/ha; for pest or weed control at 125 g/ha: 125 g ai/ha
[11] = test system: barnyardgrass (Echinochloa crus-galli); test: Test B flooded paddy test, barnyardgrass; details: Echinochloa crus-galli, read-out: Plant response rating, Barnyardgrass (0 to 100 scale, 0 is no effect, 100 is complete control)
[12] = test system: ryegrass, Italian (Italian ryegrass, Lolium multiflorum); test: Test A postemergence, ryegrass, Italian; assay type: in vivo; details: Lolium multiflorum, post-emergence, 240 h, 0 to 100 scale (0 no effect, 100 complete control), read-out: Plant response rating, Ryegrass, Italian; for pest or weed control at 31 g/ha: 31 g ai/ha; for pest or weed control at 125 g/ha: 125 g ai/ha
[13] = test system: pigweed (Amaranthus retroflexus); test: Test A preemergence, pigweed; assay type: in vivo; details: Amaranthus retroflexus, pre-emergence, 240 h, 0 to 100 scale (0 no effect, 100 complete control), read-out: Plant response rating, Pigweed; for pest or weed control at 31 g/ha: 31 g ai/ha; for pest or weed control at 125 g/ha: 125 g ai/ha
[14] = test system: barnyardgrass (Echinochloa crus-galli); test: Test A preemergence, barnyardgrass; assay type: in vivo; details: Echinochloa crus-galli, pre-emergence, 240 h, 0 to 100 scale (0 no effect, 100 complete control), read-out: Plant response rating, Barnyardgrass; for pest or weed control at 31 g/ha: 31 g ai/ha; for pest or weed control at 125 g/ha: 125 g ai/ha
[15] = test system: ragweed (common ragweed, Ambrosia elatior); test: Test A preemergence, ragweed; assay type: in vivo; details: Ambrosia artemisiifolia, pre-emergence, 240 h, 0 to 100 scale (0 no effect, 100 complete control), read-out: Plant response rating, Ragweed; for pest or weed control at 31 g/ha: 31 g ai/ha; for pest or weed control at 125 g/ha: 125 g ai/ha
[16] = test system: wheat (Triticum aestivum); test: Test A postemergence, wheat; assay type: in vivo; details: Triticum aestivum, post-emergence, 240 h, 0 to 100 scale (0 no effect, 100 complete control), read-out: Plant response rating, Wheat; for plant injury at 31 g/ha: 31 g ai/ha; for plant injury at 125 g/ha: 125 g ai/ha

Row | Structure (SMILES) | pest or weed control at 31 g/ha (kochia (Kochia scoparia) [1]) | pest or weed control at 125 g/ha (kochia (Kochia scoparia) [1]) | Corn plant response rating (crop injury, 0 = no effect, 100 = complete kill) at 31 g/ha (corn (Zea mays)) | Corn plant response rating (crop injury, 0 = no effect, 100 = complete kill) at 125 g/ha (corn (Zea mays)) | pest or weed control at 31 g/ha [2] | pest or weed control at 125 g/ha [2] | pest or weed control at 31 g/ha [3] | pest or weed control at 125 g/ha [3] | pest or weed control at 31 g/ha [4] | pest or weed control at 125 g/ha [4] | pest or weed control at 31 g/ha [5] | pest or weed control at 125 g/ha [5] | pest or weed control at 250 g/ha [6] | plant injury at 250 g/ha (rice (Oryza sativa)) | pest or weed control at 31 g/ha [7] | pest or weed control at 125 g/ha [7] | pest or weed control at 31 g/ha [8] | pest or weed control at 125 g/ha [8] | pest or weed control at 31 g/ha (kochia (Kochia scoparia) [9]) | pest or weed control at 125 g/ha (kochia (Kochia scoparia) [9]) | also measured
1 | O=C1Cc2cccc(Oc3ncc(Cl)cn3)c2C(CCCC(F)(F)F)O1 (stereo not drawn) [Compound 17, 8-[(5-Chloro-2-pyrimidinyl)oxy]-1,4-dihydro-1-(4,4,4-trifluorobutyl)-3H-2-benzopyran-3-one] | 0% | 60% | 20% | 20% | 0% | 10% | 10% | 70% | 50% | 70% | 20% | 50% | 0% | 0% | 10% | 70% | 40% | 90% | 30% | 70% | pest or weed control at 31 g/ha [10]: 10%; pest or weed control at 125 g/ha [10]: 10%; pest or weed control at 250 g/ha [11]: 0%; pest or weed control at 31 g/ha [12]: 0%; pest or weed control at 125 g/ha [12]: 10%; pest or weed control at 31 g/ha [13]: 60%; pest or weed control at 125 g/ha [13]: 100%; pest or weed control at 31 g/ha [14]: 10%; pest or weed control at 125 g/ha [14]: 50%; pest or weed control at 31 g/ha [15]: 0%; pest or weed control at 125 g/ha [15]: 0%; plant injury at 31 g/ha [16]: 0%; plant injury at 125 g/ha [16]: 10%
2 | O=C1OC(CCC(F)(F)F)Cc2c(Oc3ncc(Cl)cn3)cccc21 (stereo not drawn) [Compound 23, 5-[(5-Chloro-2-pyrimidinyl)oxy]-3,4-dihydro-3-(3,3,3-trifluoropropyl)-1H-2-benzopyran-1-one] | 0% | 60% | 10% | 20% | 0% | 0% | 20% | 20% | 60% | 70% | 20% | 30% | 0% | 0% | 0% | 40% | 40% | 70% | 20% | 70% | pest or weed control at 31 g/ha [10]: 0%; pest or weed control at 125 g/ha [10]: 10%; pest or weed control at 250 g/ha [11]: 0%; pest or weed control at 31 g/ha [12]: 0%; pest or weed control at 125 g/ha [12]: 0%; pest or weed control at 31 g/ha [13]: 20%; pest or weed control at 125 g/ha [13]: 100%; pest or weed control at 31 g/ha [14]: 0%; pest or weed control at 125 g/ha [14]: 30%; pest or weed control at 31 g/ha [15]: 0%; pest or weed control at 125 g/ha [15]: 0%; plant injury at 31 g/ha [16]: 20%; plant injury at 125 g/ha [16]: 30%
3 | FC(F)(F)CC[C@H]1OCc2cccc(Oc3ncc(Cl)cn3)c21 [Compound 20, 5-Chloro-2-[[(3R)-1,3-dihydro-3-(3,3,3-trifluoropropyl)-4-isobenzofuranyl]oxy]-pyrimidine] | 100% | 100% | 30% | 50% | 10% | 60% | 40% | 100% | 100% | 100% | 80% | 100% | 100% | 30% | 100% | 100% | 90% | 100% | 90% | 100% | pest or weed control at 31 g/ha [10]: 30%; pest or weed control at 125 g/ha [10]: 70%; pest or weed control at 250 g/ha [11]: 90%; pest or weed control at 31 g/ha [12]: 30%; pest or weed control at 125 g/ha [12]: 80%; pest or weed control at 31 g/ha [13]: 100%; pest or weed control at 125 g/ha [13]: 100%; pest or weed control at 31 g/ha [14]: 70%; pest or weed control at 125 g/ha [14]: 100%; pest or weed control at 31 g/ha [15]: 30%; pest or weed control at 125 g/ha [15]: 100%; plant injury at 31 g/ha [16]: 20%; plant injury at 125 g/ha [16]: 90%
